Test results: ChEMBL document CHEMBL4811239, “Insertion of metal carbenes into the anilinic N-H bond of unprotected aminobenzenesulfonamides delivers low nanomolar inhibitors of human carbonic anhydrase IX and XII isoforms” (Eur J Med Chem, 2021)
pIC50, pKi: −log10 of the molar value. Calls of active or inactive are those of the source. No cut-off for these calls is given here.

Key:
MCF7 [1] = assay: Antiproliferative activity against human MCF7 cells assessed as cell survival at 100 uM after 72 hrs under hypoxic condition by MTT assay; format: functional; settings: for viability at 100 µM: read-out: Activity
MCF7 [2] = assay: Antiproliferative activity against human MCF-7 cells assessed as cell survival at 100 uM after 72 hrs under normoxic condition by MTT assay; format: functional; settings: for viability at 100 µM: read-out: Activity
MDA-MB-231 [3] = assay: Antiproliferative activity against human MDA-MB-231 cells assessed as reduction in cell viability at 100 uM after 72 hrs under normoxic condition by MTT assay; format: functional
Carbonic anhydrase 9 = Carbonic anhydrase 9 (Homo sapiens, UniProt Q16790); assay: Inhibition of recombinant human CA9 pre-incubated for 15 mins prior to testing by phenol red-based stopped-flow CO2 hydration assay
Carbonic anhydrase 12 = Carbonic anhydrase 12 (Homo sapiens, UniProt O43570); assay: Inhibition of recombinant human CA12 pre-incubated for 15 mins prior to testing by phenol red-based stopped-flow CO2 hydration assay
Carbonic anhydrase 1 = Carbonic anhydrase 1 (Homo sapiens, UniProt P00915); assay: Inhibition of recombinant human CA1 pre-incubated for 15 mins prior to testing by phenol red-based stopped-flow CO2 hydration assay
MDA-MB-231 [4] = assay: Antiproliferative activity against human MDA-MB-231 cells assessed as reduction in cell viability at 100 uM after 72 hrs under hypoxic condition by MTT assay; format: functional
MDA-MB-231 [5] = assay: Antiproliferative activity against human MDA-MB-231 cells assessed as reduction in cell viability after 72 hrs under hypoxic condition by MTT assay; settings: MDA-MB-231, 72 h
MCF7 [6] = assay: Antiproliferative activity against human MCF7 cells assessed as reduction in cell viability after 72 hrs under hypoxic condition by MTT assay; settings: MCF7, 72 h
[7] = Antiproliferative activity against human WI26VA4 cells assessed as reduction in cell viability after 72 hrs under normoxic condition by MTT assay; settings: WI26VA4, 72 h
MDA-MB-231 [8] = assay: Antiproliferative activity against human MDA-MB-231 cells assessed as reduction in cell viability after 72 hrs under normoxic condition by MTT assay; settings: MDA-MB-231, 72 h
[9] = Antiproliferative activity against human WI26VA4 cells assessed as reduction in cell viability after 72 hrs under hypoxic condition by MTT assay; settings: WI26VA4, 72 h
MCF7 [10] = assay: Antiproliferative activity against human MCF7 cells assessed as reduction in cell viability after 72 hrs under normoxic condition by MTT assay; settings: MCF7, 72 h

Sequence of Carbonic anhydrase 1 (P00915 whole entry): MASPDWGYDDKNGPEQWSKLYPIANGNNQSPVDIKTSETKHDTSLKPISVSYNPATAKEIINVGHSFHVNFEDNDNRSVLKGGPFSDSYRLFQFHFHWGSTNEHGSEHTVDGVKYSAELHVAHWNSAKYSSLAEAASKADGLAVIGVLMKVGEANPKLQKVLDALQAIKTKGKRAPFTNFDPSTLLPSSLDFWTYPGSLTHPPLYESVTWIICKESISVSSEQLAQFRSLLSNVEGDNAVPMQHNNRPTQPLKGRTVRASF
Sequence of Carbonic anhydrase 12 (O43570 whole entry): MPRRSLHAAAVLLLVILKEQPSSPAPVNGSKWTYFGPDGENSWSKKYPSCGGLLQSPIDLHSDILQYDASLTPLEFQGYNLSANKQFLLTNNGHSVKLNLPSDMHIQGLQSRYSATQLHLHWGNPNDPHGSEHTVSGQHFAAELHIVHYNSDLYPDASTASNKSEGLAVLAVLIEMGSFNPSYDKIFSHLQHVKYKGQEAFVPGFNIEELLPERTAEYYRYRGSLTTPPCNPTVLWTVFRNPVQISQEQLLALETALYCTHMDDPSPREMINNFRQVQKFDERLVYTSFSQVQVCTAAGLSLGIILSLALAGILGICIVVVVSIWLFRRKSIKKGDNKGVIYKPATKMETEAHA

Compound	Activity (MCF7 [1])	Activity (MCF7 [2])	Activity (MDA-MB-231 [3])	pKi (Carbonic anhydrase 9)	pKi (Carbonic anhydrase 12)	pKi (Carbonic anhydrase 1)	Activity (MDA-MB-231 [4])	viability at 100 µM (MCF7 [1])	pIC50 (MDA-MB-231 [5])	viability at 100 µM (MCF7 [2])	pIC50 (MCF7 [6])	pIC50 [7]	pIC50 (MDA-MB-231 [8])	pIC50 [9]	pIC50 (MCF7 [10])
Cc1ccc(C(=O)CNc2cccc(S(N)(=O)=O)c2)cc1	inactive	inactive	inactive	7.19	6.68	6.53	inactive								
CCOC(=O)C(Nc1ccc(S(N)(=O)=O)cc1)C(=O)OCC	inactive	inactive	inactive	7.28	7.24	6.87	inactive								
Cc1ccc(N2C(=O)C(Cc3ccc(Cl)cc3)=C(Nc3ccc(S(N)(=O)=O)cc3)C2=O)cc1				7.09	6.89	< 5.00		10%	4.81	10%	4.94	4.66	4.78	4.58	4.96
CCOC(=O)C(C(=O)Nc1ccc(S(N)(=O)=O)cc1)c1ccccc1 (configuration not stated)	inactive	inactive	inactive	7.21	7.38	6.51	inactive								
COC(=O)C(Nc1ccc(S(N)(=O)=O)cc1)C(=O)OC	inactive	inactive	inactive	7.24		6.78	inactive								
CCOC(=O)C(Nc1ccc(S(N)(=O)=O)cc1)c1ccc(Cl)cc1 (configuration not stated)	inactive	inactive	30%	7.27	7.20	6.87	30%								
Cc1ccc(N2C(=O)C(Cc3ccc(Cl)cc3)=C(Nc3cccc(S(N)(=O)=O)c3)C2=O)cc1				6.20	5.97	< 5.00		10%	4.43	10%	4.82	4.66	4.43	4.45	4.83
COc1ccc(C(=O)CNc2cccc(S(N)(=O)=O)c2)cc1	inactive	inactive	inactive	7.27	6.72	6.04	inactive								
NS(=O)(=O)c1ccc(NC2CCN(c3nccs3)C2=O)cc1 (configuration not stated)	inactive	inactive	inactive	7.43	7.73	6.86	inactive								
CCOC(=O)C(Nc1ccc(S(N)(=O)=O)cc1)c1ccc(OC)c(OC)c1 (configuration not stated)	inactive	inactive	inactive	8.19	7.45	5.23	inactive								
CCN(CC)C(=O)CNc1cccc(S(N)(=O)=O)c1	inactive	inactive	inactive	7.34	7.08	7.15	inactive								
COC(=O)C(Nc1ccc(S(N)(=O)=O)cc1)C(=O)c1ccccc1OC (configuration not stated)				7.59	7.58	6.08									
COCC(=O)C(Nc1ccc(S(N)(=O)=O)cc1)C(=O)OC (configuration not stated)	inactive	inactive	inactive	7.19	7.61	7.16	inactive								
NS(=O)(=O)c1cccc(NCC(=O)N2CCN(Cc3ccc(Cl)cc3)CC2)c1	inactive	inactive	inactive	6.94	7.44	5.40	inactive								
COCCOC(=O)C(Nc1ccc(S(N)(=O)=O)cc1)C(=O)OCCOC	inactive	inactive	inactive	7.43	7.35	7.07	inactive								
CCOC(=O)C(C(=O)Nc1ccc(S(N)(=O)=O)cc1)C(C)C (configuration not stated)	inactive	inactive	inactive	7.49		7.24	inactive								
CCN(CC)C(=O)CNc1ccc(S(N)(=O)=O)cc1	inactive	inactive	inactive	7.05	7.48	6.61	inactive								

Compound	Activity (MCF7 [1])	Activity (MCF7 [2])	Activity (MDA-MB-231 [3])	pKi (Carbonic anhydrase 9)	pKi (Carbonic anhydrase 12)	pKi (Carbonic anhydrase 1)	Activity (MDA-MB-231 [4])	viability at 100 µM (MCF7 [1])	pIC50 (MDA-MB-231 [5])	viability at 100 µM (MCF7 [2])	pIC50 (MCF7 [6])	pIC50 [7]	pIC50 (MDA-MB-231 [8])	pIC50 [9]	pIC50 (MCF7 [10])
NS(=O)(=O)c1ccc(NC2CCN(c3ccccc3)C2=O)cc1 (configuration not stated)	inactive	inactive	inactive	8.02	7.60	7.21	inactive								
COC(=O)C(Nc1cccc(S(N)(=O)=O)c1)C(=O)c1ccc(OC)cc1 (configuration not stated)	inactive	inactive	inactive	7.04		5.59	inactive								
CCOC(=O)C(C(=O)Nc1cccc(S(N)(=O)=O)c1)C(C)C (configuration not stated)	inactive	inactive	inactive	7.15	6.95	6.46	inactive								
NS(=O)(=O)c1ccc(NCC(=O)N2CCN(Cc3ccc(Cl)cc3)CC2)cc1	inactive	inactive	inactive	7.67	7.95	6.83	inactive								
CCOC(=O)C(Nc1ccc(S(N)(=O)=O)cc1)C(=O)c1ccccc1 (configuration not stated)	inactive	inactive	inactive	7.74	7.66	6.61	inactive								
COc1ccccc1CC1=C(Nc2ccc(S(N)(=O)=O)cc2)C(=O)N(c2ccccc2)C1=O	Active	Active		7.17	7.06	< 5.00									
CC(C)OC(=O)C(Nc1ccc(S(N)(=O)=O)cc1)C(=O)OC(C)C	inactive	inactive	inactive	7.55	7.21	6.98	inactive								
NS(=O)(=O)c1ccc(NC2CCCCCC2=O)cc1 (configuration not stated)	inactive	inactive	30%	8.19	7.31	6.69	30%								
CCOC(=O)C(Nc1ccc(S(N)(=O)=O)cc1)C(=O)c1ccc(OC)cc1 (configuration not stated)	inactive	inactive	inactive	7.90	7.78	6.50	inactive								
CC(C)C(C(=O)Nc1ccc(S(N)(=O)=O)cc1)C(=O)c1ccccc1 (configuration not stated)	inactive	inactive	inactive	7.52	7.45	6.74	inactive								
CC(C(=O)Nc1ccc(S(N)(=O)=O)cc1)C(=O)c1ccc(Cl)cc1 (configuration not stated)	Active	Active	30%	7.46	7.65	6.67	30%								
CCOC(=O)C(Nc1cccc(S(N)(=O)=O)c1)C(=O)c1ccccc1 (configuration not stated)	inactive	inactive	30%	7.23	7.08	5.81	30%								
COc1ccc(C(=O)CNc2ccc(S(N)(=O)=O)cc2)cc1	Active	Active	inactive	8.00	7.09	6.90	inactive								
Cc1ccc(C(=O)CNc2ccc(S(N)(=O)=O)cc2)cc1	inactive	inactive	inactive	7.82	7.17	7.27	inactive								
CC(C)C(C(=O)Nc1cccc(S(N)(=O)=O)c1)C(=O)c1ccccc1 (configuration not stated)	inactive	inactive	inactive	7.15	7.22	5.87	inactive								
NS(=O)(=O)c1ccc(NC2CCN(c3cccc(C(F)(F)F)c3)C2=O)cc1 (configuration not stated)	inactive	inactive	inactive	7.71	7.86	6.33	inactive								
CC(C)(C)C(=O)CNc1cccc(S(N)(=O)=O)c1	inactive	inactive	inactive	7.38	7.62	6.46	inactive								
